Test [1] has as its system severe spinal cord contusion injury in the rat. The test can be described thus: Acetone test (cold chemical stimulus) after severe spinal cord contusion injury, treatment DPO 28-35. Format: in vivo. To be noted: 10 mg/kg/day by gavage DPO 28 till DPO 35. How it is done: (§1) Thirteen week-old female Lewis rats (Charles River, Sulzfeld Germany) were housed under a 12:12 h dark/light regime and allowed free access to water and food. After one week of habituation the animals underwent general anesthesia with a mixture of isoflurane and air (induction: 5% isoflurane, maintenance: 2.2% isofluorane). A Th10 laminectomy was performed without rupturing the dura and a severe contusive SCI (25 gem NYU/MASCIS II impactor) (Gruner, 1992 #3) was induced. After suturing muscle and skin, a subcutaneous (s.c.) injection of 5 ml of Ringers Lactate was given. Bladders were emptied manually 2 times a day until spontaneous voiding returned (usually within 1 week). The lesion severity was verified by the impact velocity and contusion depth of the impactor rod. Animals with an impact velocity error >5% were excluded from further analysis. After injury, individual rats were randomly assigned into a treatment group. The following groups were used:
(§2) Group 2: SCI+HR 325 (10 mg/kg/day) in vehicle by gavage for 7 days, from DPO 28 till DPO 35
(§3) Group 3: SCI+FK 778 (10 mg/kg/day) in vehicle by gavage for 7 day, from DPO 28 till DPO 35
A slightly modified method of De la Calle and colleagues (De la Calle et al., 2002) was used for the determination of the reactivity to a cold chemical stimulus. The rat was placed in acrylic cages on top of a wire mesh grid, which allowed access to the paws, and acetone was applied to the plantar surface of the hind paw. To do this, 100 μl of acetone was sprayed onto the plantar surface of the rat's hind leg from below the grid with a syringe holding 2.5 ml. The time spent with the leg withdrawn from floor during the 60 s following exposure to acetone was recorded. Both hind legs were tested in each animal with an interval of 5-10 min between each test. The average reaction time between the two legs was taken for further analysis. A minimal value of 1 s was assigned to convey a fast or brisk reaction, while 0 was assigned if there was no reaction at all. This acetone test has been described as composing of cold, chemical, and possibly mechanical stimulation.

Test [2] has the same test system. As to the kind of experiment: Mechanical sensitivity (von Frey, Up-Down) after severe spinal cord contusion injury, treatment DPO 28-35. Type of test: in vivo. To be noted: for withdrawal threshold (50% threshold force): DPO 28, before start of treatment (group baseline), 15 grams before injury, vehicle group 2.7. As to the method: as §1
The mechanical sensitivity response was measured as the direct pressure stimulus required eliciting foot withdrawal in nonrestrained conditions. All tests were conducted in the morning between 7:30 and 10:30 am and the person performing the behavioral tests was blinded to the experimental groups. Animals were habituated to the testing apparatus for at least 20 min before testing. Each animal was subjected to the stimulation of a series of von Frey filaments ranging from 0.4 to 15 g (log force 3.61, 3.84, 4.08, 4.31, 4.56, 4.74, 4.93 and 5.18) using the Up-Down paradigm according to Chaplan (Chaplan et al., 1994). The selected von Frey filament was pressed against the plantar surface of the hind paw to the point of 30° bending for 3 s. Paw withdrawal response was considered as the positive response. The 50% threshold force needed for paw withdrawal was calculated for both hind paws of each rat and the mean value of both hind paws was used to represent the mechanical sensitivity of this animal.
as §2, §3

Test [3] relates to spinal cord contusion injury. The test can be described thus: Mechanical sensitivity (von Frey, Up-Down), chronic central neuropathic pain three months after spinal cord contusion injury, treatment DPO 84-91. Format: in vivo, rat. To be noted: DPO 28, before treatment (group baseline, stable up to DPO 84); 15 grams before injury; vehicle group 3.2. How it is done: as §1, with “used: The mechanical sensitivity response was measured as the direct pressure stimulus required eliciting foot withdrawal in nonrestrained conditions. […] The 50% threshold force needed for paw withdrawal was calculated for both hind paws of each rat and the mean value of both hind paws was used to represent the mechanical sensitivity of this animal. […]” for “used:”

For test [4], the system named is partial ligation of the sciatic nerve. The test can be described thus: Mechanical sensitivity (von Frey, Up-Down) after partial ligation of the sciatic nerve. The note with it: DPO 21, after daily oral 10 mg/kg DPO 14 till DPO 21; 60 grams before injury, 19 grams at DPO 14 before treatment; FIG. 8. Type of test: in vivo, rat. As to the method: The mechanical sensitivity response was measured as the direct pressure stimulus required eliciting foot withdrawal in nonrestained conditions. Animals were habituated to the testing apparatus for at least 20 min before testing. Each animal was subjected to the stimulation of a series of von Frey filaments ranging from 1.0 to 60 g using the Up-Down paradigm according to Chapter (Chaplan et al., 1994). The selected von Frey filament was pressed against the plantar surface of the hind paw to the point of 30° bending for 3 s. Paw withdrawal response was considered as the positive response. The 50% threshold force needed for paw withdrawal was calculated for both hind paws of each rat. The methods of Seltzer et al. (1990) were followed. The dorsum of the sciatic nerve was carefully freed from surrounding connective tissues at a site near the trochanter just distal to the point at which the posterior biceps semitendinosus nerve branches off the common sciatic nerve. The nerve was fixed in its place by pinching the epineurium on its dorsal aspect, taking care not to press the nerve against underlying structures. An 8-0 (Polyamide 6) suture was inserted into the nerve and tightly ligated so that the dorsal ⅓-½ of the nerve thickness was trapped in the ligature (Seltzer et al., 1990). […]

Consider `C#CCCC(O)=C(C#N)C(=O)Nc1ccc(C(F)(F)F)cc1` [FK-778, N-(4-trifluoromethyl)-phenyl-2-cyano-3-hydroxy-hept-2-en-6-in-carboxylic acidamide], for which the “reversal of cold allodynia after experimental spinal cord injury (conclusion)” value in test [1] is “able to reverse cold allodynia”. In addition, the “duration of response to acetone exposure vs vehicle controls” value is reported as “responded significantly shorter” in test [1] (DPO 35, one-way ANOVA p<0.01, FIG. 3) and “responded significantly shorter” in test [1] (DPO 56, ANOVA p<0.001, Bonferroni post-hoc). Moreover, in test [1] (end of experiment DPO 70, p<0.01), the “duration of response to acetone exposure, differences to vehicle controls” value was “differences remained unchanged”. The “reversal of mechanical allodynia after experimental spinal cord injury (conclusion)” value in test [2] (10 mg/kg/day by gavage DPO 28 till DPO 35) is reported as “able to reverse mechanical allodynia”. Moreover, the “withdrawal threshold (50% threshold force)” value in test [2] is reported as 3.1 grams. For the same molecule, the “withdrawal threshold vs vehicle control animals” value in test [2] (DPO 35, 10 mg/kg/day by gavage DPO 28 till DPO 35, one-way ANOVA p<0.001, FIG. 2) is on record as “significantly higher”. Further, the “withdrawal threshold, difference to vehicle controls” value in test [2] (end of experiment DPO 77, 10 mg/kg/day by gavage DPO 28 till DPO 35, p<0.001) is “statistically significant difference between the treated animals and the vehicle controls remained”.
Regarding `Cc1cc(NC(=O)/C(C#N)=C(\O)C2CC2)ccc1C(F)(F)F` [HR-325, 1(3-methyl-4-trifluoromethylphenyl-carbamoyl)-2-cyclopropyl-2oxo-propionitrile], the “withdrawal threshold (50% threshold force)” value in test [3] was found to be 2.7 grams; in test [2], 3.0 grams. The “withdrawal threshold in the ipsilateral paw” value in test [4] was 54 grams.

The values above are taken from patent US9468615B2, “Use of malononitrilamides in neuropathic pain” (AL-GIAX Pharmaceuticals GMBH, priority 2010, dated 2016).
